Assays:
Streptococcus uberis = experiment: Non-inferiority trial: bacteriological cure, Strep. uberis infections; assay type: in vivo, cows; settings: Strep. uberis cases; margin −0.175; 95% CI; FIG. 6
Experimental: (§1) A non-inferiority randomized clinical trial was conducted, following methodology described in Schukken et al., “Noninferiority Trial Comparing a First-Generation Cephalosporin With a Third-Generation Cephalosporin in the Treatment of Nonsevere Clinical Mastitis in Dairy Cows,” J. Dairy Sci. 96(10): 6763-74 (2013). […] Ha: [Rcure(cefquinome)−Rcure(P-PRP)]>−Δ [2] where “Rcure”is the cure risk and “Δ” is the non-inferiority margin. Results were interpreted according to the principles for a non-inferiority trial (Piaggio et al., “Reporting of Noninferiority and Equivalence Randomized Trials: Extension of the CONSORT 2010 Statement,” JAMA 308(24): 2594-604 (2012); Schukken et al. (2013)).
(§2) The milk samples were streaked onto agar plates containing 5% sheep blood and 0.1% esculin. The agar plates were incubated at 37.5° C. and visually inspected at 24 hours and 48 hours for bacterial growth. Morphology and Gram staining were used for initial identification. A catalase test was used to differentiate staphylococci from streptococci, and a coagulase test was performed on catalase-positive cocci to confirm presence of Staphylococcus aureus. Gram-positive and catalase-negative cocci were differentiated by their reaction to the hydrolysis of esculin under ultraviolet light. […]

Streptococcus agalactiae = experiment: Non-inferiority trial: bacteriological cure, Strep. agalactiae infections; assay type: in vivo, cows
Experimental: as §1, §2

[1] = test system: Gram-positive major pathogens; experiment: Non-inferiority randomized clinical trial: bacteriological cure in cows with subclinical mastitis; assay type: in vivo
Experimental: as §1
The milk samples were streaked onto agar plates containing 5% sheep blood and 0.1% esculin. The agar plates were incubated at 37.5° C. and visually inspected at 24 hours and 48 hours for bacterial growth. Morphology and Gram staining were used for initial identification. A catalase test was used to differentiate staphylococci from streptococci, and a coagulase test was performed on catalase-positive cocci to confirm presence of Staphylococcus aureus. Gram-positive and catalase-negative cocci were differentiated by their reaction to the hydrolysis of esculin under ultraviolet light. The Christie, Atkins, Munch-Petersen (CAMP) test and esculin reaction were used to differentiate Streptococcus agalactiae and Streptococcus dysgalactiae, and esculin reaction and culture in enterococcosel agar (from Becton-Dickinson, Durham, N.C., USA) were used to identify Streptococcus uberis. Their morphology and Gram staining were used to identify Corynebacterium species. Growth in McConckey agar and further biochemical tests, such as citrate, indole, oxidase and motility, were used to identify coliforms. Those cultures that presented more than two bacterial species were considered contaminated and not informative of intramammary infection. […]

[2] = Somatic cell count (LnSCC) in milk of treated cows; assay type: in vivo; settings: days 21, 22, 47, 48 vs day 0; FIG. 7
From the text: Two individual composite milk samples were aseptically collected from each cow during the first visit to the herd in order to select the cows to be treated for subclinical mastitis. These milk samples were refrigerated and submitted to Universidad de Caldas for analysis, with one of the samples being used for analysis of subclinical mastitis using an automated cell counter (FOSSOMATIC, from Foss, Hillerod, Denmark). The subclinical mastitis results were expressed as the natural log (LnSCC), in thousands/mL to normalize the data distribution. […]
Cure was defined at the cow level. […] Cure risk was statistically assessed for initial treatment (samples taken at days 21 and 22) and treatment of refractory cases samples (samples taken at days 47 and 48), independently. […]
The statistical analyses of LnSCC and the milk concentration of IL-1, IL-2, IL-4, IL-6, IL-8, IFN-γ, and TNF-αresults were done using linear regression. […] The linear regression model used was: y=intercept+treatment+herd+parity+LnSCC+error [4] where y corresponds to LnSCC after treatment on days 21 and 47 for cows treated one or two times, respectively, and the milk concentrations of IL-1, IL-2, IL-4, IL-6, IL-8, IFN-γ, and TNF-α, which were measured only at days 0 and 21. […]

IFN-γ = experiment: Cytokine concentrations in milk of treated cows (ELISA); assay type: in vivo
Experimental: Once cows were treated, composite milk samples from both treated groups were collected at days 21 and 22 after treatment for SCC and microbiological analyses. Procedures for SCC and microbiology were previously described. Treatment was repeated in cows that remained positive for major Gram-positive bacteria, receiving the same product used for the first treatment 4 days after collecting the second milk sample. A final milk sampling was conducted on all refractory cases 21 and 22 days after the repeated treatment. Individual cow SCC, including laboratory data and pre- and post-treatment concentration of cytokines (IL-1, IL-2, IL-4, IL-6, IL-8, IFN-γ, and TNF-α), were generated for each milk sample. No more than two treatment attempts per cow were performed and used in the study.
Proteins were analyzed in hemoderivatives and whole milk using commercial ELISA development kits from R&D Systems (Minneapolis, Minn., USA) with the exception of […]. PDGF-BB (Human PDGF-BB DuoSet, DY220), TGF-β1 (Human TGF-β1 DuoSet, DY240E), and PF4 (Human CXCL4/PF4 Duoset, DY795), which were determined using human antibodies. […]

For `CO/N=C(\C(=O)N[C@@H]1C(=O)N2C(C(=O)[O-])=C(C[n+]3cccc4c3CCCC4)CS[C@H]12)c1csc(N)n1.O=S(=O)(O)O` [cefquinome sulphate], the “Risk difference for bacteriological cure, non-inferiority interpretation” value (Streptococcus uberis) was “better”, the “Risk difference for bacteriological cure, non-inferiority interpretation” value (Streptococcus agalactiae; Strep. agalactiae cases, margin −0.175, 95% CI, FIG. 6) was “better, although non-inferiority is inconclusive” and the “Cure risk for Strep. agalactiae” value (Streptococcus agalactiae; in vivo) was 100%. The “Risk difference for bacteriological cure, non-inferiority interpretation” value ([1]; all cases, margin −0.175, 95% CI, FIG. 6) was “better”, the “Overall bacteriological cure, percent of cows” value ([1]; cows with subclinical mastitis, EG n=54, RG n=49) was 71% and the “Overall bacteriological cure, number of cows” value ([1]; cows with subclinical mastitis, intramammary infusion, three consecutive milkings, EG n=54, RG n=49) was 35 cows. For the same compound, the “Change of mean LnSCC in milk after the start of the trial” value [2] was “no differences”, the “Concentration of IFN-γ in milk, change” value (IFN-γ; by day 47 in cows treated twice) was “increased” and the “Concentration of IFN-γ in milk, comparison between groups” value (IFN-γ; days 0 and 22) was “higher”.
